Measurements reported in US9072778B2, “Treatment regimen for N-MYC, c-MYC, and L-MYC amplified and overexpressed tumors” (UNIVERSITY OF HAWAII, priority 2005, dated 2015).

Molecular target: T1, ODC (Homo sapiens, UniProt P11926)
T1 construct: enzyme activities were measured in cell lysates; endogenous in cells
T1 sequence (P11926 1-461): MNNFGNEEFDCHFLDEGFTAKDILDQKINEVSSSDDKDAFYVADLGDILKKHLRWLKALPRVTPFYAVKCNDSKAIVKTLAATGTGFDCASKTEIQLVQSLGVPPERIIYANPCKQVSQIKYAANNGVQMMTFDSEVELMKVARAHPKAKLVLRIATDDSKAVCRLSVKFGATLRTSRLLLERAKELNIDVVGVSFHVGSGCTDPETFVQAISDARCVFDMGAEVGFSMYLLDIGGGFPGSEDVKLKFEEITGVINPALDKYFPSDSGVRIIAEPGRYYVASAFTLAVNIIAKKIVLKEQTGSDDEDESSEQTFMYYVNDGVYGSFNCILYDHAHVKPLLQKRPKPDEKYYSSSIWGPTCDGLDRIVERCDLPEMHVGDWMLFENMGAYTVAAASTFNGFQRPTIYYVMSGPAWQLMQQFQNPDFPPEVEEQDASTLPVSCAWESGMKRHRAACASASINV
Assay: ODC activity after preincubation of cell extracts with DFMO
Format: biochemical
Details: extracts from untreated or DFMO-treated LAN-1 cells, 100 μM DFMO, 30 min at 37° C.
Method: ODC and AdoMetDC enzyme activities were determined using a standard assay known in the art. In brief, NB cells were washed twice with ice-cold PBS and harvested in 50 mM sodium phosphate buffer (pH 7.2), 0.1 mM EDTA, 2.5 mM DTT, supplemented with 1× protease inhibitor cocktail (Roche Molecular Biochemicals, Indianapolis, Ind.). […] Cells were lysed by three freeze/thaw cycles and cell lysates were prepared by centrifugation for 20 minutes at 14,000 rpm and 4° C. ODC activity was measured in a reaction mixture that contained 20 μM L-[1-^14C]ornithine (47.70 mCi/mmol; NEN Life Science Products, Boston, Mass.).

ODC activity after preincubation of extracts: complete loss of ODC activity
SMILES: NCCC[C@](N)(C(=O)O)C(F)F [DFMO, α-difluoromethylornithine]
